These compounds were tested against Carbonic anhydrase 1 (Homo sapiens, UniProt P00915).
Chain of Carbonic anhydrase 1 (P00915 whole entry): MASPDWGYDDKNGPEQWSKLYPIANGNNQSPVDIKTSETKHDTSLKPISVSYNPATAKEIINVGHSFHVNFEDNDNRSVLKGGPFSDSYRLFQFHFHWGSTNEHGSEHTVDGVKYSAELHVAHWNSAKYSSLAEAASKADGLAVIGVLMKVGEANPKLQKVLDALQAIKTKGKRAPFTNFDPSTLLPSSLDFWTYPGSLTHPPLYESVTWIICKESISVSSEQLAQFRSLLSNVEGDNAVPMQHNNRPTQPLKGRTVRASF

Which Ki does the source give for `NS(=O)(=O)O` [SODIUM SULFIMIDATE] here?
The Ki was 310 µM.

Which Ki does the source give for `F[B-](F)(F)F.[Na+]` [SODIUM TETRAFLUOROBORATE] here?
Its Ki is > 200000 µM.

Which Ki does the source give for `CCN(CC)C(=S)S` [DITIOCARB SODIUM] here?
Its Ki is 790 µM.

From ChEMBL document CHEMBL1777760, “Inhibition studies with anions and small molecules of two novel β-carbonic anhydrases from the bacterial pathogen Salmonella enterica serovar Typhimurium” (Bioorg Med Chem Lett, 2011)
